Tests used:
primary rat hepatocytes [1] = experiment: Albumin secretion of primary rat hepatocytes cultured in the microfluidic channel (rat albumin ELISA); type: cell-based
Text: 200 pg/ml of TGF-β1 was supplemented into cultivation medium (▪). In another set of experiment, TGF-β1 was pre-loaded into gelatin microspheres and was then controlled released to the hepatocytes at a concentration of 217.5 pg/ml ( ?; control release). In the control experiment, there is no TGF-β1 supplemented in cultivation medium (□).
Albumin production was quantified with a rat albumin ELISA quantification kit (Bethyl Laboratories Inc, USA) in the collected cultivation medium everyday. In the presence of TGF-β1, the level of albumin secretion is enhanced. From day 5 onwards, when TGF-β1 is controlled released to the hepatocytes, the level of albumin secretion can be well-sustained.

primary rat hepatocytes [2] = experiment: UGT activity: 4-MUG production of primary rat hepatocytes in the microfluidic channel (CE-LIF); type: cell-based; conditions: from day 3 onwards; TGF-β1 controlled released from gelatin microspheres at 217.5 pg/ml; compared to medium-supplemented and control groups
Protocol: The enzyme has the ability to metabolize the substrate 4-methylumbelliferone (MU) into 4-methylumbelliferone-glucuronide (MUG). Thus, the enzyme activity is indicated by the amount of 4-MUG produced by the cells.
Capillary electrophoresis (CE) with fluorimetric detection was used for the simultaneous detection of 4-MU and 4-MUG. Separation is carried out on an untreated fused silica capillary with fluorimetric detection using an excitation wavelength of 320 nm with a 375 nm cut off emission filter. […]
Similar to the UDP-glucuronosyltransferase (UGT) assay described above, UDP-glucuronosyltransferase (UGT) activity of hepatocytes cultured in the compartment of a channel of a microfluidic continuous flow device was determined by infusing 100 μM of 4-methylumbelliferone (4-MU) (Sigma, Singapore) for 4 h at 200 μl/h into the channel. The perfusate (800 μl) was collected and the metabolic product, 4-methylumbelliferone-glucuronide (4-MUG), was analyzed using capillary electrophoresis with laser induced fluorescence (CE-LIF) (Toh, Y. C. et al., 2008, Analyst, vol. 132, no. 3, p. 326) detection (Prince Technologies B.V., Netherlands) at an excitation wavelength of 325 nm.

TGF-β1: growth factor supplemented into cultivation medium or pre-loaded into gelatin microspheres and controlled released to hepatocytes
albumin secretion (primary rat hepatocytes [1]; from day 5 onwards, 200 pg/ml TGF-β1 supplemented into cultivation medium): decreases
level of albumin secretion (primary rat hepatocytes [1]; from day 5 onwards, TGF-β1 controlled released from gelatin microspheres at 217.5 pg/ml): well-sustained
level of albumin secretion (primary rat hepatocytes [1]; in the presence of TGF-β1 (200 pg/ml in medium or 217.5 pg/ml controlled release) versus no TGF-β1): enhanced
level of 4-MUG production (primary rat hepatocytes [2]): greatly enhanced
